Patent publication US20160345827A1, “TWO-PHOTON MICROSCOPY IMAGING RETINA CELL DAMAGE” (POLGENIX, INC., priority 2014, published 2016)
Entries after “also recorded” stand apart in the source; their conditions may differ.

Legend:
[1] = tested on: Abca4^−/−Rdh8^−/− (Dko) retinal cultures; assay: ex vivo Dko retinal cultures incubated with atRAL (morphology, LDH); type: cell-based; details: 6 h at 37° C
Experimental: FIGS. 11(A-B) illustrate images showing retinal degeneration is induced by atRAL in ex vivo Dko retinal cultures. Retinas were removed from the eyecups of 4-wk-old Abca4^−/−Rdh8^−/− (Dko) mice and cultured for 16 h at 37° C. Retinas were then incubated further with/without 30 μM of atRAL in the presence/absence of experimental drugs for 6 h at 37° C. Vehicle (DMSO), retinylamine (Ret-NH2) at 30 μM, or apocynin (Apo) at 300 μM was applied together with atRAL. (A) Retinal morphology was examined after incubation with atRAL. […] Bars indicate SD (n=3). *P<0.05.
(§1) Eyes were enucleated, washed with a penicillin-streptomycin solution (Sigma), and rinsed with Hank's balanced salt solution (HyClone). Prepared mouse eyecups were flattened by creating retinal flaps. Flattened retinas were transferred onto filter paper and the retina was gently peeled off from the RPE/choroid. All these procedures were performed under a surgical microscope. Each retina on filter paper was placed into a well of a 12-well plate filled with 0.5 mL of DMEM (HyClone) with 10% FBS and incubated for 16 h at 37° C. Retinas then were washed twice with 0.5 mL of fresh DMEM containing 10% FBS and finally incubated again with/without 30 μM of atRAL for 6 h at 37° C. A lactate dehydrogenase (LDH) assay was performed to determine cellular death rates with a LDH activity assay kit (BioVision). The percentage of cytotoxicity was calculated as [(a retina with atRAL—a retina without atRAL)/(lysis control—a retina without atRAL)]×100.

Abca4^−/−Rdh8^−/− mice = assay: light-induced retinal degeneration in Abca4^−/−Rdh8^−/− mice, TPM and histology at day 7; details: Ret-NH2 1 mg per mouse oral gavage 16 h before, or Apo 1 mg/mouse i.p. 30 min before 10,000 lx light for 60 min; day 7
[2] = tested on: retinal explant tissue cultures; type: cell-based; details: 6 h at 37° C, WT retinas
Experimental: FIGS. 6(A-B) illustrate images and a plot showing retinal degeneration is induced by atRAL in ex vivo retinal cultures. Retinas were removed from the eyecups of 4-wk-old C57BL/6J mice and cultured for 16 h at 37° C. Then retinas were incubated further with/without 30 μM of atRAL in the presence/absence of experimental drugs for 6 h at 37° C. Vehicle (DMSO), retinylamine (Ret-NH2) at 30 μM, or apocynin (Apo) at 300 μM was applied, together with atRAL. (A) Retinal morphology was examined after incubation with atRAL and with and without drugs. […] (B) TUNEL staining was performed with the ApoTag Peroxidase in Situ Apoptosis Detection Kit. Counter nuclear staining was accomplished with methyl green. […] (D) Retinas were removed from eyecups of 4-wk-old C57BL/6J mice and cultured with or without 30 μM of atRAL for 24 h at 37° C. After incubation, retinas were washed twice with PBS and then examined by TPM. Spectra from photoreceptor outer segments are shown (Left) along with representative magnified images (Right). Spectra from retinas cultured with atRAL featured a broad maximum absorption at 600 nm.
as §1
The primary cause of acute retinal degeneration after bright light exposure in Abca4^−/−Rdh8^−/− mice is the delayed clearance of atRAL from photoreceptors. […] Thus, to examine whether retinal tissue lacking RPE cells can display degenerative changes similar to those observed in in vivo, we performed ex vivo culture experiments with retinal explants coincubated with atRAL. Neural retinas were dissected from eyes of 4-wk-old WT mice, and incubated with 30 μM of atRAL in the presence of control vehicle, 30 μM of retinylamine or 300 μM of apocynin for 6 h at 37° C. […] Cell death rates were calculated by measuring lactate dehydrogenase released into tissue culture supernatants from dying cells.

SMILES: COc1cc(C(C)=O)ccc1O [apocynin]
- effect on atRAL-induced cell death rate (LDH assay) ([1]; Ret-NH2 30 μM or Apo 300 μM together with 30 μM atRAL, Dko retinas): reduced
- light-induced retinal degeneration (retinal histology) (Abca4^−/−Rdh8^−/− mice): can be prevented; also recorded: conferred protection
- protection of retinal morphology against atRAL-induced damage ([2]; Ret-NH2 30 μM or apocynin 300 μM together with 30 μM atRAL): protected the ONL and INL
- prevention of atRAL-induced photoreceptor apoptosis (TUNEL staining) ([2]; retinylamine 30 μM or apocynin 300 μM together with 30 μM atRAL, listed as APO): protected the ONL and INL

SMILES: CC1=C(/C=C/C(C)=C/C=C/C(C)=C/C=O)C(C)(C)CCC1 [atRAL, all-trans-retinaldehyde]
- retinal morphology (ONL) after incubation with atRAL ([1]; 30 μM atRAL with vehicle, Dko retinas): markedly disrupted
- retinal cell death (LDH assay) caused by atRAL ([1]; 30 μM atRAL, Dko retinal culture supernatants): caused retinal cell death
